PubChem BioAssay (NCI)
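Briefly, cells in 96-well plates were exposed to five compound concentrations for 48 h, and endpoints were estimated by linear interpolation. TGI is the concentration that stops growth completely.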

Columns and labels:
Test in all cases: NCI-60 cell line screen, 48 h
A549 NSCLC = test system: A549 NSCLC
HS 578T breast = test system: HS 578T breast
T-47D breast = test system: T-47D breast
M14 melanoma = test system: M14 melanoma
MALME-3M melanoma = test system: MALME-3M melanoma
HOP-62 NSCLC = test system: HOP-62 NSCLC
MOLT-4 leukemia = test system: MOLT-4 leukemia
OVCAR-4 ovarian = test system: OVCAR-4 ovarian
SK-MEL-28 melanoma = test system: SK-MEL-28 melanoma
OVCAR-8 ovarian = test system: OVCAR-8 ovarian
COLO 205 colon = test system: COLO 205 colon
EKVX NSCLC = test system: EKVX NSCLC
K-562 leukemia = test system: K-562 leukemia
SF-539 CNS = test system: SF-539 CNS
UACC-257 melanoma = test system: UACC-257 melanoma
UACC-62 melanoma = test system: UACC-62 melanoma
CCRF-CEM leukemia = test system: CCRF-CEM leukemia
TK-10 renal = test system: TK-10 renal
DU-145 prostate = test system: DU-145 prostate
NCI/ADR-RES ovarian = test system: NCI/ADR-RES ovarian

Row | SMILES | TGI (A549 NSCLC) [µM] | TGI (HS 578T breast) [µM] | TGI (T-47D breast) [µM] | TGI (M14 melanoma) [µM] | TGI (MALME-3M melanoma) [µM] | TGI (HOP-62 NSCLC) [µM] | TGI (MOLT-4 leukemia) [µM] | TGI (OVCAR-4 ovarian) [µM] | TGI (SK-MEL-28 melanoma) [µM] | TGI (OVCAR-8 ovarian) [µM] | TGI (COLO 205 colon) [µM] | TGI (EKVX NSCLC) [µM] | TGI (K-562 leukemia) [µM] | TGI (SF-539 CNS) [µM] | TGI (UACC-257 melanoma) [µM] | TGI (UACC-62 melanoma) [µM] | TGI (CCRF-CEM leukemia) [µM] | TGI (TK-10 renal) [µM] | TGI (DU-145 prostate) [µM] | TGI (NCI/ADR-RES ovarian) [µM]
1 | O=c1[nH][nH]c(=O)c2c1ccc1oc3ccccc3c12 | > 100 | > 100 | > 100 | > 100 | > 100 | > 100 | > 100 | > 100 | > 100 | > 100 | > 100 | > 100 | > 100 | > 100 | > 100 | > 100 | > 100 | > 100 | > 100 | –
2 | COc1ccc(/C=C\c2cc(OC)c(OC)c(OC)c2)cc1 | > 100 | – | – | > 100 | > 100 | > 100 | 3.09 | – | – | > 100 | 11.5 | – | > 100 | 0.00384 | – | > 100 | > 100 | – | – | –
3 | CC(Cn1c2c(c3cc(O)ccc31)CCc1ccc(O)cc1-2)N(C)C (configuration not stated) | – | 46 | – | 28.8 | 30.8 | 31 | > 100 | – | – | 33.2 | – | 52.9 | > 100 | 32.1 | 44.6 | 35.9 | > 100 | 37.1 | – | 41.9
4 | CCCNCCCCC(NC(C)=O)C(=O)NCc1ccccc1 (configuration not stated) | > 100 | – | – | > 100 | > 100 | > 100 | > 100 | > 100 | > 100 | > 100 | > 100 | > 100 | > 100 | > 100 | > 100 | > 100 | > 100 | > 100 | – | –
5 | COc1ccc(C2Cc3cc(OC)c(OC)c(OC)c3C2)cc1 (configuration not stated) | 76.2 | – | – | > 100 | > 100 | > 100 | 61.6 | > 100 | > 100 | > 100 | > 100 | > 100 | > 100 | > 100 | > 100 | > 100 | > 100 | > 100 | – | –
6 | CN1CCc2ccccc2C(C(=O)c2ccc3c(c2)OCO3)C1=O (configuration not stated) | > 100 | – | – | > 100 | > 100 | > 100 | > 100 | > 100 | > 100 | > 100 | > 100 | – | > 100 | – | > 100 | > 100 | > 100 | > 100 | – | –
7 | CCSC1=N/C(=C\c2ccco2)C(=O)N1 | > 100 | > 100 | – | > 100 | > 100 | > 100 | > 100 | – | > 100 | > 100 | > 100 | > 100 | > 100 | – | – | > 100 | > 100 | > 100 | > 100 | > 100
8 | CCCCOC/N=C(/N)NC#N | > 100 | – | – | > 100 | > 100 | > 100 | > 100 | > 100 | > 100 | > 100 | > 100 | > 100 | > 100 | > 100 | > 100 | > 100 | – | > 100 | – | –
9 | C1CSCC2(COC2)CSCCSCC2(COC2)CS1 | > 100 | – | > 100 | > 100 | – | > 100 | > 100 | > 100 | > 100 | > 100 | > 100 | > 100 | > 100 | > 100 | > 100 | > 100 | > 100 | > 100 | > 100 | > 100
10 | CC(=O)[C@H]1[C@H](O)C[C@@]2(C)[C@@H]3CCc4cc(O)c(OC5OC(CO)C(O)C(O)C5O)cc4C3(C)C(=O)C[C@]12C (some centres not stated) | > 100 | – | > 100 | > 100 | > 100 | > 100 | > 100 | > 100 | > 100 | > 100 | > 100 | > 100 | > 100 | > 100 | > 100 | > 100 | > 100 | > 100 | > 100 | > 100
11 | CC1=CCC(C(C)(C)NC(=O)c2ccccc2)C/C1=N/O (configuration not stated) | > 100 | – | > 100 | > 100 | – | > 100 | > 100 | > 100 | > 100 | > 100 | > 100 | > 100 | > 100 | > 100 | > 100 | > 100 | > 100 | > 100 | > 100 | –
12 | CO/C(=N\N=C\c1ccc(Cl)c(Cl)c1)c1ccncc1 | > 10 | – | > 10 | > 10 | > 10 | > 10 | > 10 | – | > 10 | > 10 | > 10 | – | > 10 | > 10 | – | – | > 10 | > 10 | – | > 10
13 | O=C(/C=C/c1ccccc1O)c1ccccc1Cl | > 100 | – | – | > 100 | > 100 | > 100 | 84.1 | > 100 | > 100 | > 100 | > 100 | > 100 | > 100 | > 100 | > 100 | > 100 | 88.5 | > 100 | – | –
14 | Cc1sc2nc3n(c(=O)c2c1C)N=CN(c1ccc(Cl)cc1)C3 | > 100 | – | – | > 100 | > 100 | > 100 | > 100 | > 100 | > 100 | > 100 | > 100 | > 100 | > 100 | – | > 100 | > 100 | > 100 | > 100 | > 100 | > 100
